Data: ChEMBL document CHEMBL1158147, “Ultraviolet-mediated cytotoxic activity of phenylheptatriyne from Bidens pilosa L” (J Nat Prod, 1979)
Calls of active or inactive are those of the source. No cut-off for these calls is given here.

Assays:
Bacillus subtilis = test: Phototoxicity against Bacillus subtilis at 5 ug/disk in dark; type: functional, organism-based
Rhodotorula mucilaginosa [1] = test: Phototoxicity against Rhodotorula rubra Y96 at 5 ug/disk in presence of long wave UV light; type: functional, organism-based
Pseudomonas fluorescens = test: Phototoxicity against Pseudomonas fluorescens at 5 ug/disk in presence of long wave UV light; type: functional, organism-based
DNA [2] = test: Photochemical activity against denatured calf thymus DNA at 10 ug in dark by hyperchromicity test; type: nucleic-acid assay; details: Bos taurus; note: unit not given here
[3] = Effect on human skin fibroblast cells assessed as viable cell count at 10 ug/ml in petroleum ether after 1.78 Joules/cm UV irradiation for 20 mins by trypan blue exclusion method; type: ADME, cell-based; details: read-out: Activity
Microsporum canis [4] = test: Phototoxicity against Microsporum canis at 5 ug/disk in presence of cool-white fluorescent light; type: functional, organism-based
Kocuria rosea = test: Phototoxicity against Micrococcus roseus UBC 289 at 5 ug/disk in dark; type: functional, organism-based
[5] = Effect on human skin fibroblast cells assessed as viable cell count at 10 ug/ml in petroleum ether after 10.67 Joules/cm UV irradiation for 120 mins by trypan blue exclusion method; type: ADME, cell-based; details: read-out: Activity
Candida albicans [6] = test: Phototoxicity against Candida albicans at 2.5 ug/disk after UV irradiation for 30 mins; type: functional, organism-based
Rhodotorula mucilaginosa [7] = test: Phototoxicity against Rhodotorula rubra Y96 at 5 ug/disk in dark; type: functional, organism-based
Saccharomyces cerevisiae [8] = test: Effect on Saccharomyces cerevisiae assessed as viable cell count at 10 ug/ml in petroleum ether after 5.33 Joules/cm'2 UV irradiation for 60 mins; type: functional
Torula [9] = test: Phototoxicity against Torula sp. at 5 ug/disk in presence of long wave UV light; type: functional, organism-based
Paraphyton cookei = test: Phototoxicity against Microsporum cookei at 5 ug/disk in presence of cool-white fluorescent light; type: functional, organism-based
Fusarium sp. = test: Phototoxicity against Fusarium sp. at 5 ug/disk in presence of cool-white fluorescent light; type: functional, organism-based
Torula [10] = test: Phototoxicity against Torula sp. at 5 ug/disk in dark; type: functional, organism-based
[11] = test system: Trichophyton mentagrophytes; test: Phototoxicity against Trichophyton mentagrophytes at 5 ug/disk in presence of long wave UV light; type: functional, organism-based
[12] = Effect on human skin fibroblast cells assessed as viable cell count at 10 ug/ml in petroleum ether after 3.53 Joules/cm UV irradiation for 40 mins by trypan blue exclusion method; type: ADME, cell-based; details: read-out: Activity
Candida albicans [13] = test: Phototoxicity against Candida albicans at 5 ug/disk in dark; type: functional, organism-based
Candida albicans [14] = test: Phototoxicity against Candida albicans at 5 ug/disk in presence of long wave UV light; type: functional, organism-based
DNA [15] = test: Photochemical activity against denatured calf thymus DNA at 10 ug after UV irradiation with 16.00 Joules/cm'2 for 180 mins by hyperchromicity test; type: nucleic-acid assay; details: Bos taurus
Escherichia coli = test: Phototoxicity against Escherichia coli at 5 ug/disk in presence of long wave UV light; type: functional, organism-based
Nannizzia gypsea [16] = test: Phototoxicity against Microsporum gypseum at 5 ug/disk in presence of cool-white fluorescent light; type: functional, organism-based
Nannizzia gypsea [17] = test: Phototoxicity against Microsporum gypseum at 5 ug/disk in dark; type: functional, organism-based
Microsporum canis [18] = test: Phototoxicity against Microsporum canis at 5 ug/disk in presence of long wave UV light; type: functional, organism-based
Saccharomyces cerevisiae [19] = test: Effect on Saccharomyces cerevisiae assessed as viable cell count at 10 ug/ml in petroleum ether in dark after 60 mins; type: functional

Activity (DNA [2]): 0.17
Activity (DNA [15]): 0
Structure (SMILES): CC#CC#CC#Cc1ccccc1 [PHENYLHEPTATRIYNE]
Activity (Bacillus subtilis): inactive
Activity (Rhodotorula mucilaginosa [1]): Active
Activity (Pseudomonas fluorescens): inactive
viability at 20 min, 10 ug/ml [3]: 95%
Activity (Microsporum canis [4]): Active
Activity (Kocuria rosea): inactive
viability at 2 h, 10 ug/ml [5]: 0%
Activity (Candida albicans [6]): inactive
Activity (Rhodotorula mucilaginosa [7]): inactive
Activity (Saccharomyces cerevisiae [8]): 0
Activity (Torula [9]): Active
Activity (Paraphyton cookei): Active
Activity (Fusarium sp.): Active
Activity (Torula [10]): inactive
Activity [11]: Active
viability at 40 min, 10 ug/ml [12]: 50%
Activity (Candida albicans [13]): inactive
Activity (Candida albicans [14]): Active
Activity (Escherichia coli): Active
Activity (Nannizzia gypsea [16]): Active
Activity (Nannizzia gypsea [17]): inactive
Activity (Microsporum canis [18]): Active
Activity (Saccharomyces cerevisiae [19]): 48.3
